The values that follow come from US11767303B2, “Compounds and methods for inhibiting viral replication and methods of treating and preventing flaviviral infections” (priority 2020, dated 2023).

Like-named read-outs stand apart in the source and are kept apart here.

Series [1] in a line: Pharmacokinetics in B6 mice after oral gavage. The note with it: B6 mice, single oral dose 40 mg/kg, plasma. From the text: Pharmacokinetics. […] Fan et al., “Contributions of Hepatic and Intestinal Metabolism to the Disposition of Niclosamide, a Repurposed Drug with Poor Bioavailability,” Drug Metab. Dispos. 47:756-763 (2019), which is hereby incorporated by reference in its entirety. […] Student's t-test was used. P values<0.05 were considered statistically significant.

The target of the next series is T1, viral NS3 protease (Dengue virus type 2, UniProt P29990).
T1 construct: made in house
T1 sequence (P29990 1476-1659): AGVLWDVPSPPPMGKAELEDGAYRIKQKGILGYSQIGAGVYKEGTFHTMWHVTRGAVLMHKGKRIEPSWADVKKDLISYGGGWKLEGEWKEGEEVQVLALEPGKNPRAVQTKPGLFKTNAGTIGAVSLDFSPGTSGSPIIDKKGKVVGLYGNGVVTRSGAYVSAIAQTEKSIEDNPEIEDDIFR
In words: Protein thermal shift assay (PTSA). Type of series: binding. The text has this:
Li et al., “Existing Drugs as Broad-Spectrum and Potent Inhibitors for Zika Virus by Targeting NS2B-NS3 Interaction,” Cell Res. 27:1046-1064 (2017), which is hereby incorporated by reference in its entirety.

For series [2], the system named is ZIKV. In words: Viral titer reduction assay, ZIKV in A549 cells. It is filed as cell-based, Zika virus. The following applies: Zika virus. The method, then: Viral Titer Reduction Assay. A viral titer reduction assay was used to determine the compounds' effect on DENV2 and ZIKV strains, as described previously. […] Human A549 lung carcinoma cells and human primary neural progenitor cells were used, as described previously. […] All experiments were performed in triplicates.

The nature of series [3]: Repeated oral dosing toxicity in mice. It is filed as in vivo, mouse. The following applies: repeated oral dosing 40 mg/kg/day for 7 days.
Another series has as its system 3D organoids. In words: Toxic effect on 3D organoids. Type of series: cell-based, human. The note with it: 1.5 μM. From the text: Culturing of human iPSCs. Human iPSC F11350.1 culture was maintained in feed-free conditions using mTeSR1 medium (StemCell Technologies #85851) with 5× supplement (StemCell Technologies #85852). Cells were maintained on six-well plates coated with human embryonic stem cell-qualified Matrigel at a 1:60 dilution (Corning Catalog #354277) and passaged with ReLeSR (StemCell Technologies #05872). Cortical 3D organoids were generated based on the protocol described by Yoon et al. Yoon et al., “Reliability of Human Cortical Organoid Generation,” Nat. Methods. […] Briefly, iPSCs were dissociated with accutase (ThermoFisher #A1110501) and then plated at a density of 3×10^6 cells per well in AggreWell 800 24-well plate (StemCell Technologies #34811) in Essential 8™ medium (ThermoFisher #A1517001) supplemented with 10 μM rock inhibitor (Tocris #Y27632). The plate was centrifuged at 100×g for 3 min and incubated at 37° C. overnight. […]
To evaluate if JMX0207 protects organoids from ZIKV infections, a full-length infectious ZIKV clone expressing Venus fluorescent protein (ZIKV-Venus) was first generated. […] ZIKV infection was quantified by a plaque forming unit (PFU) assay at 5 dpi and by fluorescence imaging at 7 dpi, respectively.

Series [4] in a line: WST-8 cell proliferation cytotoxicity assay. Type of series: cell-based, human. The note with it: human; Table 4, preliminary SAR, A549 cells; read-out: CC50. Here is the method: (§1) Cytotoxicity Assay. […] All experiments were performed in triplicates.
(§2) To address this concern, next the compound cytotoxicity CC50 was measured using a WST-8 cell proliferation assay, as described previously.

In a further series the test system is A549 cells. In words: WST-8 cell proliferation cytotoxicity assay. It is filed as cell-based, human. The following applies: A549 cells; read-out: CC50 (A549). Here is the method: as §1, §2
The nature of another series: in vitro. The following applies: not told, Perme. (cell permeability).
In series [5] the test system is ZIKV. In words: Immunofluorescence assay of viral protein production in A549 cells. The note with it: IFA with anti-E 4G2. Type of series: cell-based, Zika virus. Here is the method: Immunofluorescence Assay. The immunofluorescence assay was performed using ZIKV-infected cells treated with DMSO or JMX0207, as described previously. Li et al., “Existing Drugs as Broad-Spectrum and Potent Inhibitors for Zika Virus by Targeting NS2B-NS3 Interaction,” Cell Res. 27:1046-1064 (2017); Li et al., “Erythrosin B is a Potent and Broad-Spectrum Orthosteric Inhibitor of the Flavivirus NS2B-NS3 Protease,” Antiviral Res. 150:217-225 (2018), which are hereby incorporated in their entirety. A mouse monoclonal pan anti-E antibody 4G2 (ATCC) and a DyLight® 488 goat anti-mouse IgG (ImmunoReagents, Inc.) were used to monitor viral E protein expression, as described previously. Li et al., “Existing Drugs as Broad-Spectrum and Potent Inhibitors for Zika Virus by Targeting NS2B-NS3 Interaction,” Cell Res. 27:1046-1064 (2017); Li et al., “Erythrosin B is a Potent and Broad-Spectrum Orthosteric Inhibitor of the Flavivirus NS2B-NS3 Protease,” Antiviral Res. 150:217-225 (2018), which are hereby incorporated in their entirety.

Consider `O=C(Nc1ccc([N+](=O)[O-])cc1Cl)c1cccc([N+](=O)[O-])c1O` [JMX0207, N-(2-Chloro-4-nitrophenyl)-2-hydroxy-3-nitrobenzamide], for which the “AUC0→∞ ± S.D.” value in [1] is on record as 2719 ± 1018. Moreover, the “Tmax ± S.D.” value in series [1] was 1.2 ± 0.5 h. Moreover, the “T1/2 ± S.D.” value in [1] (40 mg/kg) is 11 ± 6.8 h. Also, the Cmax in series [1] (read-out: Cmax ± S.D.) turned out to be 145 µM. In addition, the “increase in Tm of the viral protein” value at viral NS3 protease came to 0.75 °C. The EC50 in the series on ZIKV [2] (A549, read-out: EC50-ZK) turned out to be 300 nM; in the series with ZIKV [2] (A549, read-out: EC50-ZK (A549)) it was 300 nM. Moreover, in [3], the sign of toxicity result is on record as “did not display any sign of toxicity”. Moreover, in the series with 3D organoids, the “toxic effect on the 3D organoids” value was “did not have any toxic effect”. Moreover, the CC50 in [4] amounted to 33.9 µM; with A549 cells, 31.9 µM. In “in vitro”, the Papp was greater than 1 ×10⁻⁶ cm/s. Moreover, in the series with ZIKV [5], the ZIKV antigen production result is on record as “greatly reduced ZIKV antigen production in A549 cells in a dose-dependent manner”.
